Results reported in the NIST ThermoML archive (doi:10.1016/j.fluid.2017.03.021).

Legend:
[1] = molar heat capacity at constant pressure; conditions: 101.33 kPa, Liquid, DSC
[2] = 101.33 kPa, Liquid; for speed of sound: Sing-around technique in a fixed-path interferometer; for mass density: Vibrating tube method

CCCCC[n+]1ccn(CCCC)c1.O=S(=O)([N-]S(=O)(=O)C(F)(F)F)C(F)(F)F
Conditions	mass density, [2] [kg/m3]	molar heat capacity at constant pressure, [1] [J/K/mol]	speed of sound, [2] [m/s]
287.15 K	1327.3	–	1239.6
289.15 K	1325.5	–	1234.8
291.15 K	1323.7	–	1230
293.15 K	1321.9	683.58	1225.3
294.15 K	–	684.63	–
295.15 K	1320.1	685.3	1220.6
296.15 K	–	685.96	–
297.15 K	1318.3	686.63	1216
298.15 K	–	687.34	–
299.15 K	1316.5	687.96	1211.3
300.15 K	–	688.62	–
301.15 K	1314.7	689.29	1206.7
302.15 K	–	690	–
303.15 K	1312.9	690.67	1202.1
304.15 K	–	691.38	–
305.15 K	1311.1	692.05	1197.6
306.15 K	–	692.76	–
307.15 K	1309.4	693.52	1193
308.15 K	–	694.28	–
309.15 K	1307.6	694.95	1188.5
310.15 K	–	695.57	–
311.15 K	1305.8	696.23	1184
312.15 K	–	697.09	–
313.15 K	1304	697.9	1179.6
314.15 K	–	698.7	–
315.15 K	1302.3	699.42	1175.1
316.15 K	–	700.08	–
317.15 K	1300.5	700.84	1170.7
318.15 K	–	701.65	–
319.15 K	1298.8	702.37	1166.3
320.15 K	–	703.22	–
321.15 K	1297	703.98	1161.8
322.15 K	–	704.74	–
323.15 K	1295.2	705.5	1157.5
324.15 K	–	706.26	–
325.15 K	1293.5	707.07	1153.1
326.15 K	–	707.83	–
327.15 K	1291.7	708.69	1148.7
328.15 K	–	709.54	–
329.15 K	1290	710.35	1144.4
330.15 K	–	711.07	–
331.15 K	1288.3	711.87	1140.1
332.15 K	–	712.64	–
333.15 K	1286.5	713.4	1135.8
334.15 K	–	714.16	–
335.15 K	1284.8	714.87	1131.5
336.15 K	–	715.68	–
337.15 K	1283	716.44	1127.3
338.15 K	–	717.2	–
339.15 K	1281.3	718.01	1123
340.15 K	–	718.67	–
341.15 K	1279.6	719.43	1118.8
342.15 K	–	719.96	–
343.15 K	1277.8	720.62	1114.7
344.15 K	–	721.24	–
345.15 K	–	721.86	–
346.15 K	–	722.48	–
347.15 K	–	723.29	–
348.15 K	–	724.47	–
